Source: US6525001B1, “Substituted pyrimidine and pyridine herbicides” (Mid-American Commercialization Corporation, priority 1997, dated 2003)

What was measured:
Format in all cases: in vivo
Parameters in all cases: key: 0 is no effect; 10 is complete control
[1] = system: cocklebur (Xanthium strumarium); assay: Test B pre-/postemergence
From the text: (§1) Seeds of bedstraw (Galium aparine), blackgrass (Alopecurus myosuroides), broadleaf signalgrass (Brachiaria decumbens), cocklebur (Xanthium strumarium), corn (Zea mays), crabgrass (Digitaria sanguinalis), giant foxtail (Setaria faberii), lambsquarters (Chenopodium album), momingglory (Ipomoea hederacea), pigweed (Amaranthus retroflexus), rape (Brassica napus), soybean (Glycine max), sugar beet (Beta vulgaris), velvetleaf (Abutilon theophrasti), wheat (Triticum aestivum), wild oat (Avena fatua) and purple nutsedge (Cyperus rotundus) tubers were planted and treated preemergence with test chemicals formulated in a non-phytotoxic solvent mixture which included a surfactant.
(§2) At the same time, these crop and weed species were also treated with postemergence applications of test chemicals formulated in the same manner. Plants ranged in height from 2 to 18 cm (1- to 4-leaf stage) for postemergence treatments. Plant species in the flood test consisted of rice (Oryza sativa), smallflower flatsedge (Cyperus difformis), duck salad (Heteranthera limosa) and bamyardgrass (Echinochloa crus-galli) grown to the 2-leaf stage for testing. Treated plants and controls were maintained in a greenhouse for twelve to sixteen days, after which all species were compared to controls and visually evaluated. Plant response ratings, summarized in Table B, are based on a scale of 0 to 10 where 0 is no effect and 10 is complete control. A dash (−) response means no test result.

wild oat (Avena fatua) = assay: Test B pre-/postemergence
From the text: as §1, §2

corn (Zea mays) = assay: Test B pre-/postemergence
From the text: as §1, §2

[2] = system: giant foxtail (Setaria faberii); assay: Test B pre-/postemergence
From the text: as §1, §2

[3] = system: purple nutsedge (Cyperus rotundus); assay: Test B pre-/postemergence
From the text: as §1, §2

rape (Brassica napus) = assay: Test B pre-/postemergence
From the text: as §1, §2

[4] = system: velvetleaf (Abutilon theophrasti); assay: Test B pre-/postemergence
From the text: as §1, §2

[5] = system: sugar beet (Beta vulgaris); assay: Test B pre-/postemergence
From the text: as §1, §2

[6] = system: pigweed (Amaranthus retroflexus); assay: Test B pre-/postemergence
From the text: as §1, §2

[7] = system: bedstraw (Galium aparine); assay: Test B pre-/postemergence
From the text: as §1, §2

[8] = system: wheat (Triticum aestivum); assay: Test B pre-/postemergence
From the text: as §1, §2

[9] = system: blackgrass (Alopecurus myosuroides); assay: Test B pre-/postemergence
From the text: as §1, §2

[10] = system: momingglory (Ipomoea hederacea); assay: Test B pre-/postemergence
From the text: as §1, §2

[11] = system: crabgrass (Digitaria sanguinalis); assay: Test B pre-/postemergence
From the text: as §1, §2

soybean (Glycine max) = assay: Test B pre-/postemergence
From the text: as §1, §2

[12] = system: broadleaf signalgrass (Brachiaria decumbens); assay: Test B pre-/postemergence
From the text: as §1, §2

rice (Oryza sativa) = assay: Test B flood test
Method in brief: (§3)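 Read-out is a visual response score from 0 (no effect) to 10 (complete control), assigned by comparison with untreated controls. Treatment was applied at the 2-leaf stage, and plants stayed in the greenhouse for twelve to sixteen days before scoring.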

[13] = system: smallflower flatsedge (Cyperus difformis); assay: Test B flood test
Method in brief: as §3

[14] = system: duck salad (Heteranthera limosa); assay: Test B flood test
Method in brief: as §3

[15] = system: bamyardgrass (Echinochloa crus-galli); assay: Test B flood test
Method in brief: as §3

[16] = Rate 62 g/ha, Postemergence (flood test)
[17] = Rate 125 g/ha, Postemergence, flood test
[18] = Rate 250 g/ha, Postemergence (flood test species)

Cc1cnc(-c2ccc(C(F)(F)F)cc2)nc1C(C)c1cccc(C(F)(F)F)c1 (racemic) [Compound 19]
5: Plant response rating, Redroot pigweed ([6]; Rate 125 g/ha, Postemergence)
7: Plant response rating, Redroot pigweed ([6]; Rate 250 g/ha, Postemergence) | Plant response rating, Ducksalad [14, 18]
4: Plant response rating, Sugarbeets ([5]; Rate 125 g/ha, Postemergence) | Plant response rating, Soybean (soybean (Glycine max); Rate 250 g/ha, Postemergence)
0: Cocklebur plant response rating ([1]; Rate 62 g/ha, Preemergence) | Plant response rating, Cocklebur ([1]; Rate 250 g/ha, Preemergence) | Plant response rating, Wild oats (wild oat (Avena fatua); Rate 62 g/ha, Postemergence) | Wild oats plant response rating (wild oat (Avena fatua); Rate 62 g/ha, Preemergence) | Wild oats plant response rating (wild oat (Avena fatua); Rate 125 g/ha, Preemergence) | Plant response rating, Wild oats (wild oat (Avena fatua); Rate 250 g/ha, Preemergence) | Corn plant response rating (corn (Zea mays); Rate 62 g/ha, Preemergence) | Corn plant response rating (corn (Zea mays); Rate 125 g/ha, Preemergence) | Plant response rating, Corn (corn (Zea mays); Rate 250 g/ha, Preemergence) | Plant response rating, Giant foxtail ([2]; Rate 62 g/ha, Postemergence) | Giant foxtail plant response rating ([2]; Rate 62 g/ha, Preemergence) | Plant response rating, Giant foxtail ([2]; Rate 125 g/ha, Postemergence) | Giant foxtail plant response rating ([2]; Rate 125 g/ha, Preemergence) | Plant response rating, Giant foxtail ([2]; Rate 250 g/ha, Preemergence) | Plant response rating, Nutsedge ([3]; Rate 62 g/ha, Postemergence) | Nutsedge plant response rating ([3]; Rate 62 g/ha, Preemergence) | Plant response rating, Nutsedge ([3]; Rate 125 g/ha, Postemergence) | Nutsedge plant response rating ([3]; Rate 125 g/ha, Preemergence) | Plant response rating, Nutsedge ([3]; Rate 250 g/ha, Postemergence) | Plant response rating, Nutsedge ([3]; Rate 250 g/ha, Preemergence) | Rape plant response rating (rape (Brassica napus); Rate 62 g/ha, Preemergence) | Rape plant response rating (rape (Brassica napus); Rate 125 g/ha, Preemergence) | Plant response rating, Rape (rape (Brassica napus); Rate 250 g/ha, Preemergence) | Velvetleaf plant response rating ([4]; Rate 62 g/ha, Preemergence) | Velvetleaf plant response rating ([4]; Rate 125 g/ha, Preemergence) | Plant response rating, Velvetleaf ([4]; Rate 250 g/ha, Preemergence) | Sugarbeets plant response rating ([5]; Rate 62 g/ha, Preemergence) | Sugarbeets plant response rating ([5]; Rate 125 g/ha, Preemergence) | Plant response rating, Sugarbeets ([5]; Rate 250 g/ha, Preemergence) | Redroot pigweed plant response rating ([6]; Rate 62 g/ha, Preemergence) | Redroot pigweed plant response rating ([6]; Rate 125 g/ha, Preemergence) | Plant response rating, Redroot pigweed ([6]; Rate 250 g/ha, Preemergence) | Bedstraw plant response rating ([7]; Rate 62 g/ha, Preemergence) | Bedstraw plant response rating ([7]; Rate 125 g/ha, Preemergence) | Plant response rating, Bedstraw ([7]; Rate 250 g/ha, Preemergence) | Plant response rating, Wheat ([8]; Rate 62 g/ha, Postemergence) | Wheat plant response rating ([8]; Rate 62 g/ha, Preemergence) | Plant response rating, Wheat ([8]; Rate 125 g/ha, Postemergence) | Wheat plant response rating ([8]; Rate 125 g/ha, Preemergence) | Plant response rating, Wheat ([8]; Rate 250 g/ha, Postemergence) | Plant response rating, Wheat ([8]; Rate 250 g/ha, Preemergence) | Blackgrass plant response rating ([9]; Rate 62 g/ha, Preemergence) | Blackgrass plant response rating ([9]; Rate 125 g/ha, Preemergence) | Plant response rating, Blackgrass ([9]; Rate 250 g/ha, Preemergence) | Morningglory plant response rating ([10]; Rate 62 g/ha, Preemergence) | Morningglory plant response rating ([10]; Rate 125 g/ha, Preemergence) | Plant response rating, Morningglory ([10]; Rate 250 g/ha, Preemergence) | Crabgrass plant response rating ([11]; Rate 62 g/ha, Preemergence) | Crabgrass plant response rating ([11]; Rate 125 g/ha, Preemergence) | Plant response rating, Crabgrass ([11]; Rate 250 g/ha, Preemergence) | Soybean plant response rating (soybean (Glycine max); Rate 62 g/ha, Preemergence) | Soybean plant response rating (soybean (Glycine max); Rate 125 g/ha, Preemergence) | Plant response rating, Soybean (soybean (Glycine max); Rate 250 g/ha, Preemergence) | B. signalgrass plant response rating ([12]; Rate 62 g/ha, Preemergence) | B. signalgrass plant response rating ([12]; Rate 125 g/ha, Preemergence) | Plant response rating, B. signalgrass ([12]; Rate 250 g/ha, Preemergence) | Plant response rating, Rice (rice (Oryza sativa); [16]) | Plant response rating, Rice (rice (Oryza sativa); [17]) | Plant response rating, S. Flatsedge [13, 16] | Plant response rating, Ducksalad [14, 16] | Plant response rating, Barnyardgrass [15, 16]
1: Plant response rating, Wild oats (wild oat (Avena fatua); Rate 125 g/ha, Postemergence) | Plant response rating, Corn (corn (Zea mays); Rate 62 g/ha, Postemergence) | Plant response rating, Giant foxtail ([2]; Rate 250 g/ha, Postemergence) | Plant response rating, Velvetleaf ([4]; Rate 62 g/ha, Postemergence) | Plant response rating, Blackgrass ([9]; Rate 62 g/ha, Postemergence) | Plant response rating, Blackgrass ([9]; Rate 125 g/ha, Postemergence) | Plant response rating, Blackgrass ([9]; Rate 250 g/ha, Postemergence) | Plant response rating, Crabgrass ([11]; Rate 62 g/ha, Postemergence) | Plant response rating, B. signalgrass ([12]; Rate 62 g/ha, Postemergence)
2: Plant response rating, Cocklebur ([1]; Rate 62 g/ha, Postemergence) | Plant response rating, Wild oats (wild oat (Avena fatua); Rate 250 g/ha, Postemergence) | Plant response rating, Corn (corn (Zea mays); Rate 125 g/ha, Postemergence) | Plant response rating, Rape (rape (Brassica napus); Rate 62 g/ha, Postemergence) | Plant response rating, Rape (rape (Brassica napus); Rate 125 g/ha, Postemergence) | Plant response rating, Velvetleaf ([4]; Rate 125 g/ha, Postemergence) | Plant response rating, Velvetleaf ([4]; Rate 250 g/ha, Postemergence) | Plant response rating, Sugarbeets ([5]; Rate 62 g/ha, Postemergence) | Plant response rating, Redroot pigweed ([6]; Rate 62 g/ha, Postemergence) | Plant response rating, Bedstraw ([7]; Rate 62 g/ha, Postemergence) | Plant response rating, Crabgrass ([11]; Rate 125 g/ha, Postemergence) | Plant response rating, Crabgrass ([11]; Rate 250 g/ha, Postemergence) | Plant response rating, Soybean (soybean (Glycine max); Rate 62 g/ha, Postemergence) | Plant response rating, B. signalgrass ([12]; Rate 125 g/ha, Postemergence) | Plant response rating, B. signalgrass ([12]; Rate 250 g/ha, Postemergence) | Plant response rating, Rice (rice (Oryza sativa); [18]) | Plant response rating, S. Flatsedge [13, 17] | Plant response rating, Ducksalad [14, 17] | Plant response rating, Barnyardgrass [15, 17]
6: Plant response rating, Sugarbeets ([5]; Rate 250 g/ha, Postemergence) | Plant response rating, Morningglory ([10]; Rate 250 g/ha, Postemergence) | Plant response rating, S. Flatsedge [13, 18]
3: Plant response rating, Cocklebur ([1]; Rate 125 g/ha, Postemergence) | Plant response rating, Cocklebur ([1]; Rate 250 g/ha, Postemergence) | Plant response rating, Corn (corn (Zea mays); Rate 250 g/ha, Postemergence) | Plant response rating, Rape (rape (Brassica napus); Rate 250 g/ha, Postemergence) | Plant response rating, Bedstraw ([7]; Rate 125 g/ha, Postemergence) | Plant response rating, Bedstraw ([7]; Rate 250 g/ha, Postemergence) | Plant response rating, Morningglory ([10]; Rate 62 g/ha, Postemergence) | Plant response rating, Morningglory ([10]; Rate 125 g/ha, Postemergence) | Plant response rating, Soybean (soybean (Glycine max); Rate 125 g/ha, Postemergence) | Plant response rating, Barnyardgrass [15, 18]
